Reference: patent publication EP4380555B1, “COMPOSITION COMPRISING D-MANNOSE, N-ACETYLCYSTEINE AND PALMITOYLETHANOLAMIDE AND ITS USE FOR THE TREATMENT OF URIRNARY TRACT INFECTIONS” (Agave S.r.l., priority 2021, dated 2023)
In brackets after ≈: the same amount, converted by molar mass.

Assays:
Assay type in all cases: cell-based
[1] = tested on: Enterococcus faecium; test: Minimum biofilm inhibitory concentration (MBIC), crystal violet staining, comparison with fosfomycin; details: E. faecium; 24 h
Procedure: (§1) The capacity of the product Comp. […] The formation of the biofilm was viewed by means of Crystal Violet staining, wherein the stain penetrates the bacterial cells and turns them purple. To determine the MBIC, 48-well plates were utilised. 200 µL of the sample, prepared at a concentration of 2x with respect to the maximum concentration being tested, was dispensed into the first well and 100 µL of medium was added to the subsequent wells, performing serial dilutions of 1:2 up to the 8th well. Finally, 100 µL of each microorganism at a concentration of 10^5 were inoculated into each well. The biofilm inhibition activity of the fosfomycin, at a lower concentration with respect to the MIC value measured in Example 10, was also assessed and the sterility and growth tests were performed for each microorganism. The multiwell plates were incubated at 37°C for 24 hours and then the supernatant present was removed, together with the planktonic bacteria not attached to the plate. The biofilm was then washed 3 times with PBS and subsequently the cells were fixed by means of incubation at 60°C for 2 hours, before being stained with crystal violet. The crystal violet staining was performed to assess the effect of the product and the fosfomycin on the formation of the biofilm. 50 µL crystal violet dissolved in deionised water was dispensed into each well and, after 5 minutes of incubation at room temperature, each well was finally washed three times with PBS 1x. The biofilm inhibition activity was viewed by microscopic observation under stereomicroscope and optical microscope using the phase-contrast method. The final concentrations tested for each sample are stated in Table 3. Table 3 [table]

[2] = tested on: Escherichia coli; test: as above; details: E. coli; 24 h
Procedure: as §1

[3] = tested on: Klebsiella pneumoniae; test: as above; details: K. pneumoniae; 24 h
Procedure: as §1

[4] = tested on: Escherichia coli (DSM 1576); test: MIC determination by broth dilution (CLSI M07), 96-well plates; details: Escherichia coli, DSM1576; E. coli, 37°C, 24 h
Procedure: (§2) The antimicrobial activity of the product Comp. 1 in Example 10 was tested in vitro according to method CLSI M07 "Methods for dilution Antimicrobial susceptibility tests for bacteria that grow aerobically".
(§3) For this purpose, the MIC (Minimum Inhibitory Concentration) values were determined with respect to the main microorganisms responsible for urinary tract infections.
(§4) More specifically, the microorganisms utilised were: Escherichia coli (DSM 1576), Klebsiella pneumoniae (DSM 30104), and Enterococcus faecalis(DSM 20477).
(§5) For each experiment conducted, the bacteria stated above were revived from a cell bank stored at -80°C. […]
(§6) The assay to determine the MIC was conducted in 96-well plates testing 12 concentrations (serial dilutions) of each sample. 200 µL of the sample, prepared at a concentration of 2x with respect to the maximum concentration being tested, was dispensed into the first well and 100 µL medium was added to the subsequent wells, performing serial dilutions of 1:2 up to 12th well. Finally, 100 µL of each microorganism at a concentration of 10^5 was inoculated into each well.
(§7) Two antibiotics were used as controls: Fosfomycin (Sigma) and Ceftriaxone (Sigma) at different final concentrations based on the microorganism utilised; both the antibiotics were dissolved in sterile water and then filtered with 0.22 µm filters.
(§8) Growth was tested and the sterility of the medium and of the product was tested. The antimicrobial activity of the D-mannose was also assessed individually. The plates thus prepared were incubated at 37°C for 24h and the results were then observed (Figure 1). The final concentrations tested for each product analysed are stated in Table 2.

[5] = tested on: Klebsiella pneumoniae (DSM 30104); test: as above; details: Klebsiella pneumoniae, DSM30104; Klebsiella, 37°C, 24 h
Procedure: as §2, §3, §4, §5, §6, §7, §8

[6] = tested on: Enterococcus faecium; test: Minimum biofilm eradication concentration (MBEC), 72 h preformed biofilm, crystal violet staining; details: E. faecium; fosfomycin 3000-23.44 µg/mL tested
Procedure: (§9) To determine the minimum biofilm eradication concentration, 48-well plates were utilised. The microorganisms were incubated for 72 h at 37°C to allow the formation of the biofilm. Once formed, the biofilm was treated with fosfomycin and with the product Comp. 1 in Example 10. In particular, after the formation of the biofilm, the supernatant was suctioned and replaced with solutions containing gradually decreasing concentrations of product or of fosfomycin. The plates thus prepared were incubated for 24 h at 37°C. At the end of the incubation time, the supernatant present in each well was removed, together with the bacteria that was not attached to the plate and, after washing, the plates were incubated at 60°C for 2 hours to fix the cells before the staining with crystal violet. The crystal violet staining was performed to assess the effect of the product and the fosfomycin on the removal of the biofilm. 50 µL crystal violet dissolved in deionised water was dispensed into each well. After 5 minutes of incubation at room temperature, each well was washed three times with PBS 1x. The biofilm eradication activity was viewed under microscopic observation (Figures 7-9). The final concentrations tested for each product are stated in Table 4 Table 4 [table]

[7] = tested on: Escherichia coli; test: as above; details: E.coli; fosfomycin 30000-234.38 µg/mL tested
Procedure: as §9

[8] = tested on: Klebsiella pneumoniae; test: as above; details: K. pneumoniae; 72 h biofilm, 24 h treatment
Procedure: as §9

[9] = tested on: Enterococcus faecium; test: MIC determination by broth dilution (CLSI M07), 96-well plates; details: Enterococcus faecium; E. faecium, 37°C, 24 h

In the case of `C[C@@H]1O[C@@H]1P(=O)(O)O` [fosfomycin, Fosfomycin], the “concentration necessary for biofilm inhibition effect” value [1] is reported as “at least 321 µg/mL”, the “concentrations with a biofilm inhibition effect” value [2] is reported as at least 78 µg/mL and the “concentrations with a biofilm inhibition effect” value [3] is reported as at least 78 µg/mL. For the same compound, the MIC [4] was 19.5 µg/mL (≈ 141 µM), the MIC [5] was 5000 µg/mL (≈ 36200 µM) and the biofilm eradication effect [6] was “did not seem to have a biofilm eradication effect”. The biofilm eradication effect [7] was “did not seem to have a biofilm eradication effect”, the “concentrations with biofilm eradication activity” value [8] was “greater than 468 µg/mL” and the MIC [9] was 78.1 µg/mL (≈ 566 µM).
